# Patent US11795177B2, “Substituted quinoline analogs as aldehyde dehydrogenase 1A1 (ALDH1A1) inhibitors” (THE UNITED STATES OF AMERICA, AS REPRESENTED BY THE …, priority 2017, dated 2023)
# Counter-ions that a name gives are not always drawn.
# Columns and labels:
# ALDH1A1 enzyme = target: T1, ALDH1A1 enzyme (Homo sapiens, UniProt P00352); assay: ALDH1A1 enzymatic assay (in vitro); type: biochemical; details: ALDH1A1 enzyme 20 nM, NAD+ 1 mM, propionaldehyde 80 μM; read-out: ALDH1A1 IC50
# T1 sequence (P00352 1-501): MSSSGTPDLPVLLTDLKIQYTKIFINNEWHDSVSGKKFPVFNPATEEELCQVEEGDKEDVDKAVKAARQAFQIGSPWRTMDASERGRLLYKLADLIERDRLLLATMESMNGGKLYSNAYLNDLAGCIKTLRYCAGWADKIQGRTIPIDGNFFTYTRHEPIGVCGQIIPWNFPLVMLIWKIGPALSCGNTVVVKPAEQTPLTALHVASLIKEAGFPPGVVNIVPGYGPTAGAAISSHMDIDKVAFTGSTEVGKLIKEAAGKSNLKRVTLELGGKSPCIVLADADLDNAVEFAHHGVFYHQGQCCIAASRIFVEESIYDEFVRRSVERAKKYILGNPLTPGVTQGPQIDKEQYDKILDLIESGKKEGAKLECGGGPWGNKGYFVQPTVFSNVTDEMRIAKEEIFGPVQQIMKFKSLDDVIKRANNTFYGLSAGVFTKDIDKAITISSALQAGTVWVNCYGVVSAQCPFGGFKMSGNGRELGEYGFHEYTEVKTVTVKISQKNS
# Procedure, shortened: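 ALDH1A1 (20 nM final) in 100 mM HEPES pH 7.5, 0.01% Tween 20 was preincubated 15 min at RT with compound (968 pM–57.2 μM final), then started with 1 mM NAD+ and 80 μM propionaldehyde. NADH fluorescence (ex 340/em 450 nm) followed kinetically for 10 min; change normalized to no-inhibitor and no-enzyme controls for percent inhibition and curve fitting.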
# MIA PaCa-2 cells = assay: MIA PaCa2 cell-based assay (1,536-well high-content imaging ALDEFLUOR assay); set-up: species or system human; details: Homo sapiens, 0.5 h, ALDEFLUOR BAAA substrate 500 nM, 30 minutes
# Procedure, shortened: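 High-content ALDEFLUOR imaging readout: BAA-retaining cells in FITC channel scored against Hoechst-counted nuclei. Before imaging, MIA PaCa-2 cells seeded at 1,000 per well received final 500 nM BAAA and 0.5 nM Hoechst with compounds in 16-point series (1.4 nM to 47.8 μM), 30 min, 37° C.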
Structure (SMILES),IC50 (ALDH1A1 enzyme),IC50 (MIA PaCa-2 cells)
"CS(=O)(=O)N1CCN(C(=O)c2cnc3ccc(F)cc3c2N2CCN(C(=O)/C(C#N)=C/C3CC3)CC2)CC1 [Example 222, (e)-3-cyclopropyl-2-(4-(6-fluoro-3-(4-(methylsulfonyl)piperazine-1-carbonyl)quinolin-4-yl)piperazine-1-carbonyl)acrylonitrile]",< 500 nM,> 10000 nM
"N#CC1(c2ccc(-c3c(C(=O)Nc4cnn(CCO)c4)cnc4ccc(F)cc34)cc2)CC1 [Cpd. 343, 4-(4-(1-cyanocyclopropyl)phenyl)-6-fluoro-N-(1-(2-hydroxyethyl)-1H-pyrazol-4-yl)quinoline-3-carboxamide]",< 500 nM,< 500 nM
"CC1(C#N)CCN(c2c(C(=O)N3CCN(S(=O)(=O)N4CCCC4)CC3)cnc3c(F)cc(F)cc23)CC1 [Example 168, 1-(6,8-difluoro-3-(4-(pyrrolidin-1-ylsulfonyl)piperazine-1-carbonyl)quinolin-4-yl)-4-methylpiperidine-4-carbonitrile]",1000 to 10000 nM,> 10000 nM
"CS(=O)(=O)N1CCN(C(=O)c2cnc3cc(F)c(F)cc3c2N2CCC3(CC2)OCCO3)CC1 [Example 132, (6,7-difluoro-4-(1,4-dioxa-8-azaspiro[4.5]decan-8-yl)quinolin-3-yl)(4-(methylsulfonyl)piperazin-1-yl)methanone]",< 500 nM,1000 to 10000 nM
"N#CC1(c2ccc(-c3c(C(=O)N4CC5(C4)CS(=O)(=O)C5)cnc4ccc(F)cc34)cc2)CC1 [Cpd. 332, 1-(4-(3-(2,2-dioxido-2-thia-6-azaspiro[3.3]heptane-6-carbonyl)-6-fluoroquinolin-4-yl)phenyl)cyclopropane-1-carbonitrile]",< 500 nM,1000 to 10000 nM
"CN(C)C(=O)N1CCN(C(=O)c2cnc3ccsc3c2N2CCC(C#N)(c3ccccc3)CC2)CC1 [Example 289, 4-(7-(4-cyano-4-phenylpiperidin-1-yl)thieno[3,2-b]pyridine-6-carbonyl)-N,N-dimethylpiperazine-1-carboxamide]",< 500 nM,< 500 nM
"CN(C)C(=O)N1CCN(C(=O)c2cnc3cc(F)c(F)cc3c2N2CCC(C)(C#N)CC2)CC1 [Example 184, 4-(4-(4-cyano-4-methylpiperidin-1-yl)-6,7-difluoroquinoline-3-carbonyl)-N,N-dimethylpiperazine-1-carboxamide]",< 500 nM,1000 to 10000 nM
"O=C(c1cnc2ccc(F)cc2c1N1CCC2(CC1)OCCO2)N1CCCN(C(=O)C2CC2)CC1 [Example 69, (4-(cyclopropanecarbonyl)-1,4-diazepan-1-yl)(6-fluoro-4-(1,4-dioxa-8-azaspiro[4.5]decan-8-yl)quinolin-3-yl)methanone]",< 500 nM,> 10000 nM
"O=C(C1CC1)C1CCN(C(=O)c2cnc3ccc(F)cc3c2N2CCC3(CC2)OCCO3)CC1 [Example 191, (4-(cyclopropanecarbonyl)piperidin-1-yl)(6-fluoro-4-(1,4-dioxa-8-azaspiro[4.5]decan-8-yl)quinolin-3-yl)methanone]",< 500 nM,500 to 1000 nM
"O=C(c1cnc2c(F)cc(F)cc2c1N1CCC2(CC1)OCCO2)N1CCN(C(=O)N2CCCC2)CC1 [Example 160, (6,8-difluoro-4-(1,4-dioxa-8-azaspiro[4.5]decan-8-yl)quinolin-3-yl)(4-(pyrrolidine-1-carbonyl)piperazin-1-yl)methanone]",< 500 nM,> 10000 nM
"CCS(=O)(=O)N1CCN(C(=O)c2cnc3sccc3c2N2CCC(C)(C#N)CC2)CC1 [Example 218, 1-(5-(4-(ethylsulfonyl)piperazine-1-carbonyl)thieno[2,3-b]pyridin-4-yl)-4-methylpiperidine-4-carbonitrile]",< 500 nM,1000 to 10000 nM
"COc1ccc2ncc(C(=O)N3CCN(C(=O)C4CC4)CC3)c(N3CCC(C(F)(F)F)CC3)c2c1 [Example 28, (4-(cyclopropanecarbonyl)piperazin-1-yl)(6-methoxy-4-(4-(trifluoromethyl)piperidin-1-yl)quinolin-3-yl)methanone]",1000 to 10000 nM,> 10000 nM
"CN(C)C(=O)N1CCN(C(=O)c2cnc3ccc(Cl)cc3c2N2CCC(C#N)(c3ccccc3)CC2)CC1 [Cpd. 312, 4-(6-chloro-4-(4-cyano-4-phenylpiperidin-1-yl)quinoline-3-carbonyl)-N,N-dimethylpiperazine-1-carboxamide]",< 500 nM,< 500 nM
"CC(C)(C#N)c1ccc(-c2c(C(=O)N3CCN(S(C)(=O)=O)CC3)ccc3ccccc23)cc1 [Example 299, 2-methyl-2-(4-(2-(4-(methylsulfonyl)piperazine-1-carbonyl)naphthalen-1-yl)phenyl)propanenitrile]",< 500 nM,< 500 nM
"Cc1ccc(C2(C#N)CCN(c3c(C(=O)N4CCN(S(C)(=O)=O)CC4)cnc4ccc(F)cc34)CC2)c(F)c1 [Example 277, 1-(6-fluoro-3-(4-(methylsulfonyl)piperazine-1-carbonyl)quinolin-4-yl)-4-(2-fluoro-4-methylphenyl)piperidine-4-carbonitrile]",< 500 nM,< 500 nM
"N#CC1(c2ccccc2F)CCN(c2c(C(=O)N3CCN(C(=O)C4CC4)CC3)cnc3ccc(F)cc23)CC1 [Example 276, 1-(3-(4-(cyclopropanecareonyl)piperazine-1-carbonyl)-6-fluoroquinolin-4-yl)-4-(2-fluorophenyl)piperidine-4-carbonitrile]",< 500 nM,< 500 nM
"CC(=O)N1CCN(C(=O)c2cnc3ccc(F)cc3c2N2CCC3(CC2)OCCO3)CC1 [Example 51, 1-(4-(6-fluoro-4-(1,4-dioxa-8-azaspiro[4.5]decan-8-yl)quinoline-3-carbonyl)piperazin-1-yl)ethanone]",< 500 nM,> 10000 nM
"CC1(O)CCN(C(=O)c2cnc3ccc(F)cc3c2-c2ccc(C3(C#N)CC3)cc2)CC1 [Cpd. 350, 1-(4-(6-fluoro-3-(4-hydroxy-4-methylpiperidine-1-carbonyl)quinolin-4-yl)phenyl)cyclopropane-1-carbonitrile]",< 500 nM,1000 to 10000 nM
"N#CC1(c2ccc(F)cc2)CCN(c2c(C(=O)N3CCN(C(=O)C4CC4)CC3)cnc3ccc(F)cc23)CC1 [Example 278, 1-(3-(4-(cyclopropanecarbonyl)piperazine-1-carbonyl)-6-fluoroquinolin-4-yl)-4-(4-fluorophenyl)piperidine-4-carbonitrile]",< 500 nM,< 500 nM
"COc1ccc2c(N3CCC(C)(C#N)CC3)c(C(=O)N3CCN(S(C)(=O)=O)CC3)cnc2c1 [Example 105, 1-(7-methoxy-3-(4-(methylsulfonyl)piperazine-1-carbonyl)quinolin-4-yl)-4-methylpiperidine-4-carbonitrile]",< 500 nM,1000 to 10000 nM
"CS(=O)(=O)C1CCN(C(=O)c2cnc3ccc(Cl)cc3c2N2CCC(C#N)(c3ccccc3)CC2)CC1 [Cpd. 310, 1-(6-chloro-3-(4-(methylsulfonyl)piperidine-1-carbonyl)quinolin-4-yl)-4-phenylpiperidine-4-carbonitrile]",< 500 nM,< 500 nM
"CN(C)S(=O)(=O)N1CCN(C(=O)c2cnc3cc(F)c(F)cc3c2N2CCC3(CC2)OCCO3)CC1 [Example 172, 4-(6,7-difluoro-4-(1,4-dioxa-8-azaspiro[4.5]decan-8-yl)quinoline-3-carbonyl)-N,N-dimethylpiperazine-1-sulfonamide]",< 500 nM,500 to 1000 nM
"CCN(CC)C(=O)N1CCN(C(=O)c2cnc3ccc(F)cc3c2N2CCC(C)(C#N)CC2)CC1 [Example 154, 4-(4-(4-cyano-4-methylpiperidin-1-yl)-6-fluoroquinoline-3-carbonyl)-N,N-diethylpiperazine-1-carboxamide]",< 500 nM,1000 to 10000 nM
"COc1ccc2ncc(C(=O)N3CCN(C(=O)C4CC4)CC3)c(N3CCC(OC)CC3)c2c1 [Example 3, (4-(cyclopropanecarbonyl)piperazin-1-yl)(6-methoxy-4-(4-methoxypiperidin-1-yl)quinolin-3-yl)methanone, TFA]",< 500 nM,> 10000 nM
"N#CC1(O)CCN(C(=O)c2cnc3ccc(F)cc3c2N2CCC(C#N)(c3ccccc3)CC2)CC1 [Cpd. 341, 1-(3-(4-cyano-4-hydroxypiperidine-1-carbonyl)-6-fluoroquinolin-4-yl)-4-phenylpiperidine-4-carbonitrile]",< 500 nM,500 to 1000 nM
"COc1cc2ncc(C(=O)N3CCN(S(C)(=O)=O)CC3)c(N3CCC4(CC3)OCCO4)c2cc1OC [Example 130, (6,7-dimethoxy-4-(1,4-dioxa-8-azaspiro[4.5]decan-8-yl)quinolin-3-yl)(4-(methylsulfonyl)piperazin-1-yl)methanone]",< 500 nM,1000 to 10000 nM
